Patent EP4741389A1, “KAT6 INHIBITOR” (Shanghai Qilu Pharmaceutical Research and Development …, priority 2023, dated 2025)

Experiments:
KAT6B = target: T1, KAT6B (Homo sapiens, UniProt Q8WYB5); test: KATs acetyltransferase enzyme activity assay (TR-FRET), KAT6B; assay type: biochemical; conditions: Biotin-H3 (1-21) and AcCOA, 90 minutes at room temperature
T1 construct: purchased Active Motif 81224
How it was run: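 TR-FRET assay in Tris-HCl buffer: enzyme preincubated with compound 15 min at room temperature, then biotin-H3(1-21) peptide and acetyl-CoA added for 90 min at room temperature. Acetylation detected with Eu-anti-acetyl-histone H4 lysine antibody and ULight-streptavidin (60 min), 665/620 nm ratio; IC50 from four-parameter logistic fit.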

ZR-75-1 cells = test: ZR-75-1 cell proliferation assay (CellTiter-Glo); assay type: cell-based; conditions: Homo sapiens, ZR-75-1, 240 h, total culture period of 10 days, read-out: ZR-75-1 Proliferation Inhibition IC50
How it was run: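 ZR-75-1 cells were exposed to compound for 10 days in total at 37°C and 5% CO2, being trypsinized, counted and re-seeded every 5 days, with fresh compound added after each re-seeding. Viability was read by CellTiter-Glo luminescence, and IC50 was derived from a four-parameter logistic fit.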

[1] = Body weight changes and tolerability in the ZR-75-1 xenograft study; assay type: in vivo, Mouse; conditions: result in words; for body weight changes: differences among the groups, FIG. 1; for tolerability in tumor-bearing mice: human breast cancer ZR-75-1 model
Experimental: • Species: Mouse; • Strain: BALB/c nude mice; • Age and weight: 6-8 weeks old, weighing 19-26 grams; • Gender: Female; • Supplier: GemPharmatech Co., Ltd.; • Compound source: Compound A: [drawing 190] prepared with reference to patent CN114364672A.
A mixture containing 10×10^6 ZR-75-1 cells in 100 µL PBS and 100 µL Matrigel (final volume was 200 µL) was subcutaneously implanted into the right dorsal side (upper side) of each mouse. On day 18 after cell implantation, when the average tumor volume reached 138 mm^3, grouping and administration were initiated. Mice with tumor volumes ranging from 100 to 212 mm^3 were selected for the study. Mice were randomly assigned to groups based on body weight and tumor volume, with 7 mice per group. The day of grouping was designated as PG-D0, and administration for all groups started from PG-D0.
The effects of the test drugs Compound 2, Compound 5-P2, Compound 3, and Compound A on the body weight of the female BALB/c nude mouse model with subcutaneously implanted human breast cancer ZR-75-1 cell xenografts are shown in FIG. 1.

T1 sequence (Q8WYB5 whole entry): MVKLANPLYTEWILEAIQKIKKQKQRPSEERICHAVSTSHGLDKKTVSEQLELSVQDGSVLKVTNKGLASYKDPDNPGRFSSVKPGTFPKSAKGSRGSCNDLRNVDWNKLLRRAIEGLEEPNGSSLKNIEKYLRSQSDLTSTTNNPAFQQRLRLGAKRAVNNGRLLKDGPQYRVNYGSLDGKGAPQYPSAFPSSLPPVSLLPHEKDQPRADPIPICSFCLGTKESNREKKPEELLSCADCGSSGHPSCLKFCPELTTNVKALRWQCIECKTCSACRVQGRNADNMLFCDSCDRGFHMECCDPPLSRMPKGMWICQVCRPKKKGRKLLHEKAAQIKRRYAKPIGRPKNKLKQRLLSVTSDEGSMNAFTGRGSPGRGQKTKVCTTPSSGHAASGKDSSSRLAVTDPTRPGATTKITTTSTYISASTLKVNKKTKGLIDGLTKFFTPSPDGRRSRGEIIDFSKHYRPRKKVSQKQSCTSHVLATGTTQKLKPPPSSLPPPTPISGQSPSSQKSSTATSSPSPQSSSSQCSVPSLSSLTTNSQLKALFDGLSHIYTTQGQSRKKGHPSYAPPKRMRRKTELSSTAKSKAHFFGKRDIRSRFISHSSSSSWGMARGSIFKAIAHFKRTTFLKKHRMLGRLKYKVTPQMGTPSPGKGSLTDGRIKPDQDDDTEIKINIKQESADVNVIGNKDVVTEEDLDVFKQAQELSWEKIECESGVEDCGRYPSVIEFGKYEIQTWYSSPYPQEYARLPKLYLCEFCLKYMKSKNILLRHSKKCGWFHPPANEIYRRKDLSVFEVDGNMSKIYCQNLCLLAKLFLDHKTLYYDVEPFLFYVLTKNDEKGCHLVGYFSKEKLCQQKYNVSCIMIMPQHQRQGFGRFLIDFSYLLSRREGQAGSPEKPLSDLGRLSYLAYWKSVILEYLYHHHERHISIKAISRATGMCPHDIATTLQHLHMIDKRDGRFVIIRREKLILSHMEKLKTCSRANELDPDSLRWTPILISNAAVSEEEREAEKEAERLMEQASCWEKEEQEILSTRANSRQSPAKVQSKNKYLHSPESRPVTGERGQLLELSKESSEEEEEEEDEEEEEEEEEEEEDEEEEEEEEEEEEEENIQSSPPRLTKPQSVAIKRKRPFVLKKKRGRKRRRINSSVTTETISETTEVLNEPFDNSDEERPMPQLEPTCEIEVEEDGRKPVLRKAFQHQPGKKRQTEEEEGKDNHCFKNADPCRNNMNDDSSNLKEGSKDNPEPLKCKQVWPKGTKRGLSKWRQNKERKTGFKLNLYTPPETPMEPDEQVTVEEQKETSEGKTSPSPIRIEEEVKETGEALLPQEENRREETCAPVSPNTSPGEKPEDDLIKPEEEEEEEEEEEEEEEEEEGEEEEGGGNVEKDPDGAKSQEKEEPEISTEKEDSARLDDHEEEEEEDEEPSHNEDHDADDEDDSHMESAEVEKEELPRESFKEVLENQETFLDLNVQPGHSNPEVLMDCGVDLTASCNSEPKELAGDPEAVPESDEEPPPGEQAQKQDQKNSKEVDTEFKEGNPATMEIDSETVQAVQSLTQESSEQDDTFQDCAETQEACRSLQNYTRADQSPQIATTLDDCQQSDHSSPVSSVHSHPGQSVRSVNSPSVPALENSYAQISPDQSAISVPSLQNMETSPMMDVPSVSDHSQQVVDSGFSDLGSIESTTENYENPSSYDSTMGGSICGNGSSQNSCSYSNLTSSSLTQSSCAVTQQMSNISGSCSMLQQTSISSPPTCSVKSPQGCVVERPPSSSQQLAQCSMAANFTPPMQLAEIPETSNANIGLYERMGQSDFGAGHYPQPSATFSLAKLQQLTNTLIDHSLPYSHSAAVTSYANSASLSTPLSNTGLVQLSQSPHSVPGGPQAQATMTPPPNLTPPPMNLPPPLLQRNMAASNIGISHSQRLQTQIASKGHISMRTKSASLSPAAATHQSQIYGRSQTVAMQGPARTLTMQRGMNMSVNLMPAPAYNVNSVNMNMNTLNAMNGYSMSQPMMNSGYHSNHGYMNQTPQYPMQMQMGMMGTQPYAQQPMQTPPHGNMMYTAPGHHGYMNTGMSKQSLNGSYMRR

## COc1ccc2c(c1S(=O)(=O)Nc1noc3cc(Cn4cccn4)cc(OC)c13)OCCCO2 [Compound 2, N-(6-((1H-Pyrazol-1-yl)methyl)-4-methoxybenzo[d]isoxazol-3-yl)-7-methoxy-3,4-dihyd ro-2H-benzo[b][1,4]dioxepine-6-sulfonamide]
KAT6B
  IC50: 25.2 nM
ZR-75-1 cells
  IC50: 3.2 nM
[1]
  body weight changes: not significant
  tolerability in tumor-bearing mice: tolerated

## COc1ccc2c(c1S(=O)(=O)Nc1noc3cc(Cn4cccn4)cc(OC)c13)OC[C@@H]1C[C@H]21 [Compound 5-P2, (1aR,7bS)-N-(6-((1H-Pyrazol-1-yl)methyl)-4-methoxybenzo[d]isoxazol-3-yl)-5-methoxy-1,1a,2,7b-tetrahydrocyclopropa[c]chromene-4-sulfonamide]
KAT6B
  IC50: 1.6 nM
ZR-75-1 cells
  IC50: 0.1 nM
[1]
  body weight changes: not significant
  tolerability in tumor-bearing mice: tolerated
